From paper PMC3722588 (Journal of the American Chemical Society, 2013)

Target: T184C MMP12 catalytic domain (Mus musculus, UniProt P34960, T184C)
Assay: Gel labeling of recombinant enzyme spiked in rat liver lysates
Format: binding
Conditions: 10 μM pretreatment before TND124, rat liver lysates

Chain of T184C MMP12 catalytic domain (P34960 29-267 T184C): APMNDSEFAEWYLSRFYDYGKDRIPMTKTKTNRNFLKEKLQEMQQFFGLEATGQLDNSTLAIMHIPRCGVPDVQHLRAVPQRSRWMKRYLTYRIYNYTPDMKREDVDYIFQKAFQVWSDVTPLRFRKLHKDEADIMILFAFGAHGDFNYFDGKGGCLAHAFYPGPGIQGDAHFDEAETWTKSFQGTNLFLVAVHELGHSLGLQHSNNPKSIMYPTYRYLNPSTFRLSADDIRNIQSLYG

## CNC(=O)[C@H](Cc1c[nH]c2ccccc12)NC(=O)[C@@H](CC(=O)NO)CC(C)C [GM6001]
  Blocking of TND124 labeling by pretreatment: completely blocked labeling
